Assay results reported in patent US9873693B2 (Sunesis Pharmaceuticals, Inc., priority 2006, dated 2018).
Like-named read-outs stand apart in the source and are kept apart here.

Legend:
[1] = target: dephosphorylated PDK1 (Homo sapiens (Human), UniProt O15530); test: PDK1 kinase assay (coupled PDK1/AKT/FAM-crosstide, IMAP); assay type: biochemical; details: 25 nM un-phosphorylated PDK1, 24 μM ATP; read-out: Inhibition of dephospo-PDK1 in vitro IC50
Protocol: A PDK1 kinase assay was performed as follows. PDK1 (amino acids 51-360) and AKT2 (amino acids 140-467 fused to PIFtide, amino acids […]) were expressed as N-terminally tagged GST fusion proteins in insect cells and purified to greater than 90% homogeneity. PDK1 protein was divided into two fractions, one of which was subsequently dephosphorylated. To generate dephosphorylated PDK1, the PDK1 was reacted with GST-tagged lambda-phosphatase in vitro. GST was subsequently cleaved proteolytically for both phosphorylated and dephosphorylated PDK1. Protein preparations were run on glutathione Sepharose columns to remove GST and GST-tagged lambda-phosphatase, if present. Phosphorylated PDK1 and dephosphorylated PDK1 were verified by mass-spectrometry. Enzyme activity was determined in a coupled PDK1/AKT/FAM-crosstide assay using either phosphorylated or unphosphorylated PDK1 and phosphorylation of FAM-crosstide was determined by standard IMAP protocol (Molecular Devices). For inhibition studies, compounds were titrated 3-fold in DMSO and diluted 40-fold into assay buffer (10 mM Tris HCl pH7.2; 10 mM MgCl2; 0.01% Triton X-100; 1 mM DTT) containing PDK1, AKT2, and FAM-crosstide. (final concentrations: 25 nM un-phosphorylated PDK1 or 0.5 nM phosphorylated PDK1, 30 nM unphosphorylated AKT2, and 100 nM crosstide substrate). The kinase reaction was initiated by adding ATP to a final concentration of 24 μM for both forms of PDK1 and incubated at 25° C. for 30 min. To detect assay product, the kinase reaction was combined with Progressive Binding Solution (1:600 Progressive Binding Reagent, 50% Buffer A, 50% Buffer B, Molecular Devices) in a 1:3 ratio. The mixture was incubated for 2 hours at 25° C. and the plate was scanned on an Analyst AD with excitation at 485 nm and emission at 530 nm. The fluorescence polarization value “P” is defined by the equation below. The value “mP” is generated by multiplying the P value for each reaction well by a factor of 1000. The value “ΔmP” for each well is the mP value for that well minus the mP value for the average negative control. P=(Fpar−Fperp)/(Fpar+Fperp) Eq.:
Where “par” is fluorescence intensity parallel to the excitation plane; and “perp” is fluorescence intensity perpendicular to the excitation plane. ΔmP values were plotted as a function of compound concentration and the data were analyzed with a 4-parameter fit using GraphPad Prism software.

[2] = target: phosphorylated PDK1 (Homo sapiens (Human), UniProt O15530); test: as above; assay type: biochemical; details: 0.5 nM phosphorylated PDK1, 24 μM ATP; read-out: Inhibition of phospo-PDK1 in vitro IC50
Chain of phosphorylated PDK1 (O15530 51-360): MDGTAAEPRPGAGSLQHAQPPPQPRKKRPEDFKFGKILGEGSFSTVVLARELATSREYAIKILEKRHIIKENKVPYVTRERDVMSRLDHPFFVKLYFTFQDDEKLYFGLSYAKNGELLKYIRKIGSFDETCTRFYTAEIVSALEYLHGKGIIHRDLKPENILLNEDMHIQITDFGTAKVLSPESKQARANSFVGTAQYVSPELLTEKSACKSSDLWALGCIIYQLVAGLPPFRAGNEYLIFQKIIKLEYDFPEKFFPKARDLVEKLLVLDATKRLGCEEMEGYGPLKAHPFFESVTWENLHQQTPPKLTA

[3] = system: phospho-akt (Thr308); test: phospho-akt (Thr308) MSD ELISA in PC-3 cells; assay type: cell-based; details: Homo sapiens; for EC50: PC-3, 2 h; for inhibition at 1 µM / inhibition at 10 µM: read-out: Percent Inhibition of phospho-Akt (308) By MSD ELISA
How it was run: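 PC-3 cells plated overnight in 10% FBS medium, then treated with three-fold serial compound dilutions in serum-free medium; DMSO-only wells as high control. Lysates captured on BSA-blocked MSD plates overnight at 4 degrees, detection antibody 1 hr RT, electrochemiluminescence read on MSD reader.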

[4] = PC-3 cells, 2 hours, no serum, read-out: Inhibition of P308 Akt in cells using MSD EC50
[5] = PC-3 cells, 2 hours, no serum, read-out: Reduction of Cellular Levels of Akt p308 By MSD ELISA (EC50 μM)

Chain of dephosphorylated PDK1 (O15530 51-360): as above

SMILES	IC50 [1] [nM]	IC50 [2] [nM]	EC50 [3, 4] [µM]	inhibition at 1 µM ([3]; PC-3 cells) [%]	inhibition at 10 µM ([3]; PC-3 cells) [%]	EC50 [3, 5] [µM]	EC50 ([3]; read-out: Inhibition of P308 Akt in cells using MSD EC50) [µM]
Cc1ccc(Cn2cccc(C(=O)NCc3noc(-c4c[nH]c5ncccc45)n3)c2=O)cc1Cl [Cpd 317]	< 500	< 500	> 5	25 to 75	> 75		
CNc1nc(-c2ccc(CNC(=O)c3cccn(Cc4ccc(F)c(F)c4)c3=O)s2)cn2ccnc12 [Cpd 325]	< 500	500 to 10000	> 5				
O=C(NCc1noc(-c2c[nH]c3ncccc23)n1)c1cccn(Cc2ccc(C(F)(F)F)c(F)c2)c1=O [Cpd 141]	< 500	< 500	1 to 5			1 to 5	
O=C(NCc1cc(-c2c[nH]c3ncccc23)[nH]n1)c1cccn(Cc2cc(F)c(F)c(F)c2)c1=O [Cpd 152]	< 500	< 500	1 to 5				
O=C(NCc1cccc(-c2ccc3[nH]ncc3c2)c1)c1cccn(Cc2ccc(F)c(F)c2)c1=O [Cpd 213]	< 500	< 500				1 to 5	
O=C1Cc2ccc(/C=C/CNC(=O)c3cc(Cl)cn(Cc4cc(F)c(F)c(F)c4)c3=O)cc2N1 [Cpd 193]	< 500	< 500					> 5
O=C1Cc2ccc(/C=C/CNC(=O)c3cccn(Cc4cc(F)c(F)c(F)c4)c3=O)cc2N1 [Cpd 166]	< 500	< 500	> 5				
O=C(NCc1noc(-c2c[nH]c3ncccc23)n1)c1cc(Cl)cn(Cc2ccc(F)c(F)c2)c1=O [Cpd 314]	< 500	< 500	> 5	25 to 75	> 75		
Cc1ccc(NC(=O)c2cccn(Cc3ccc(F)c(F)c3)c2=O)cc1-c1ccc2[nH]c(=O)[nH]c2c1 [Cpd 167]	500 to 10000	500 to 10000	> 5				
O=C(NCCOc1ccc2cc[nH]c2c1)c1cccn(Cc2ccc(F)c(F)c2)c1=O [Cpd 179]	500 to 10000	500 to 10000	> 5				
CC1(C)C(=O)Nc2cc(/C=C/CNC(=O)c3cccn(Cc4cc(F)c(F)c(F)c4)c3=O)ccc21 [Cpd 206]	< 500	500 to 10000	1 to 5				
O=C(NCc1cccc(-c2ccc3ncnn3c2)c1)c1cccn(Cc2ccc(F)c(F)c2)c1=O [Cpd 3]	< 500	< 500		< 25	> 75	1 to 5	
O=C(N[C@@H](COc1ccc2[nH]c(=O)[nH]c2c1)Cc1ccccc1)c1cccn(Cc2ccc(F)c(F)c2)c1=O [Cpd 321]	< 500	< 500	> 5	< 25	> 75		
O=C(NCCOc1ccc2[nH]c(=O)[nH]c2c1)c1cccn(Cc2ccc(F)c(F)c2)c1=O [Cpd 113]	< 500	< 500	> 5				
O=C(N[C@H](CCCO)c1nc(-c2c[nH]c3ncccc23)c[nH]1)c1cccn(Cc2ccc(F)c(F)c2)c1=O [Cpd 313]	< 500	< 500		25 to 75	25 to 75		
O=C(NCc1cccc(-c2c[nH]c3cnccc23)c1)c1cccn(Cc2ccc(F)c(F)c2)c1=O [Cpd 242]	< 500	500 to 10000		< 25	> 75		
O=C(NCc1noc(-c2c[nH]c3ncccc23)n1)c1cccn(Cc2ccc(C(F)(F)F)cc2)c1=O [Cpd 143]	< 500	< 500	> 5			> 5	
CC(C)[C@@H](COc1ccc2[nH]c(=O)[nH]c2c1)NC(=O)c1cccn(Cc2ccc(F)c(F)c2)c1=O [Cpd 320]	< 500	500 to 10000		< 25	25 to 75		
CNc1nc(-c2cccc(CNC(=O)c3cccn(Cc4ccc(F)c(F)c4)c3=O)c2)cn2ccnc12 [Cpd 326]	500 to 10000	500 to 10000	> 5				
